GI50 and IC50 data for 15 compounds are collected here from patent US20240245694A1, “Tricyclic Compounds and their Uses” (Novartis AG, priority 2022, published 2024).

For one assay, the system named is DLD1-WRN-KO cells. The assay is described as follows: Proliferation assay DLD1-WRN-KO (CellTiterGlo, 96 hours), off-target effects. The assay is classed as cell-based. Conditions: Homo sapiens. Put shortly:
(§1)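 Cells in RPMI-1640/10% FCS were seeded overnight (SW48 2'000, DLD1-WRN-KO 1'500 cells/well), then exposed to eight 3-fold compound dilutions at 0.1% DMSO. ATP luminescence relative to a day-0 plate gives % growth (0% stasis, −100% complete kill). GI50 is the geometric mean of ≥2 independent replicates.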
On the technique in general: ATP-based viability assays read luminescence as a measure of living cells.

The target in assay [1] is WRN helicase (core helicase motif aa N517-P1238) (Homo sapiens (Human), UniProt Q14191). The assay is described as follows: WRN ATPase assay (ADP-Glo), DNA dependent ATP hydrolysis. It is filed as biochemical. As to conditions: 3 hours pre-incubation, 300 micromolar ATP, FLAP26 ssDNA; geometric means of at least 2 determinations. Put shortly: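 Uses the WRN core helicase (aa N517-P1238) with single-strand 45-mer FLAP26 DNA in Tris pH 7.5, MgCl2, NaCl, BSA and pluronic buffer. Compound was pre-incubated 3 h with enzyme and ATP; reaction then run with 10 nM WRN, 0.2 nM FLAP26 and 300 µM ATP for 30 min at room temperature. ADP quantified by ADP-Glo luminescence; IC50 from duplicate 4-parameter fits, geometric mean of ≥2 runs.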
Sequence of WRN helicase (core helicase motif aa N517-P1238) (Q14191 517-1238): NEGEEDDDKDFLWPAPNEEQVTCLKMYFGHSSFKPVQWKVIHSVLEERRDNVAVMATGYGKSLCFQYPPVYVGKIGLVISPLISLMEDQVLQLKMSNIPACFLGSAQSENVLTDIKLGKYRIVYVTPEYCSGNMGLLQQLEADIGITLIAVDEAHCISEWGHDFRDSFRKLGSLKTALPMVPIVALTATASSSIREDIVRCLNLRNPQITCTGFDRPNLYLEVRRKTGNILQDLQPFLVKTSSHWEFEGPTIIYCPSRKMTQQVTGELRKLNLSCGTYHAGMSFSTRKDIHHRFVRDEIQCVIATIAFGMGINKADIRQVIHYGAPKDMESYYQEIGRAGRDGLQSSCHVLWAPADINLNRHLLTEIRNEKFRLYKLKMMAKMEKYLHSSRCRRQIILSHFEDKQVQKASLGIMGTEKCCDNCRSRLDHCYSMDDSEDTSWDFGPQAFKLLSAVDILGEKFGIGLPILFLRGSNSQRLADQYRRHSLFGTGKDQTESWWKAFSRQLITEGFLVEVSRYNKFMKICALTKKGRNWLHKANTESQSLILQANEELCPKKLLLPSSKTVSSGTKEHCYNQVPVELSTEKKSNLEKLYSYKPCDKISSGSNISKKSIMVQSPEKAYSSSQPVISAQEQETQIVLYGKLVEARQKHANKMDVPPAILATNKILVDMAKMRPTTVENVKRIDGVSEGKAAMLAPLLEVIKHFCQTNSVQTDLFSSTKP

A further assay has as its system SW48 cells. The assay is described as follows: Proliferation assay SW48 (CellTiterGlo, 96 hours). Conditions: Homo sapiens. The assay is classed as cell-based. Put shortly:
as §1

One may read the GI50 as the concentration giving 50% growth inhibition. A low value points to more potent growth inhibition. For orientation: IC50 means the concentration needed to halve the response being measured. The low end stands for higher potency, the high end for lower potency. For `C[C@@H]1C[C@@H](C(=O)Nc2ccc(C(F)(F)F)cc2Cl)n2c1c(N1CCN(C(=O)c3nccc(Cl)c3O)CC1)c(=O)n1nc(N3CCOCC3)nc21` [Example 1D, (7R,9S)-6-(4-(4-chloro-3-hydroxypicolinoyl)piperazin-1-yl)-N-(2-chloro-4-(trifluoromethyl)phenyl)-7-methyl-2-morpholino-5-oxo-5,7,8,9-tetrahydropyrrolo[1,2-c][1,2,4]triazolo[1,5-a]pyrimidine-9-carboxamide], the values for the GI50 in the assay with DLD1-WRN-KO cells and in the assay on SW48 cells were > 10 µM and 5 µM, respectively. The same compound had an IC50 in assay [1] of 3 µM.

`Cc1ncnc(C(=O)N2CCN(c3c4n(c5nc(N6CCOCC6)nn5c3=O)[C@H](C(=O)Nc3ccc(C(F)(F)F)cc3Cl)C[C@@H]4C)CC2)c1O` [Example 2B, (7S,9S)—N-(2-chloro-4-(trifluoromethyl)phenyl)-6-(4-(5-hydroxy-6-methylpyrimidine-4-carbonyl)piperazin-1-yl)-7-methyl-2-morpholino-5-oxo-5,7,8,9-tetrahydropyrrolo[1,2-c][1,2,4]triazolo[1,5-a]pyrimidine-9-carboxamide]: the GI50 in the assay on DLD1-WRN-KO cells and with SW48 cells was > 10 µM each time. In assay [1], this compound registered a half-inhibitory concentration (IC50) of 26 µM.

Consider `CC(=O)N1CCN(c2c3n(c4nc(-c5ccccc5)nn4c2=O)C(C(=O)Nc2ccc(C(F)(F)F)cc2)CC3)CC1` (racemic) [Example 22, rac-6-(4-acetylpiperazin-1-yl)-5-oxo-2-phenyl-N-(4-(trifluoromethyl)phenyl)-5,7,8,9-tetrahydropyrrolo[1,2-c][1,2,4]triazolo[1,5-a]pyrimidine-9-carboxamide], for which the figures for the GI50 with DLD1-WRN-KO cells and in the assay with SW48 cells were > 10 µM and 6 µM, respectively. This compound also had a 50% inhibitory concentration (IC50) in assay [1] of 0.7 µM.

Regarding `Cc1ncnc(C(=O)N2CCN(c3c4n(c5nc(N6CCOCC6)nn5c3=O)[C@H](C(=O)Nc3ccc(C(F)(F)F)cc3Cl)C[C@H]4C)CC2)c1O` [Example 2D, (7R,9S)—N-(2-chloro-4-(trifluoromethyl)phenyl)-6-(4-(5-hydroxy-6-methylpyrimidine-4-carbonyl)piperazin-1-yl)-7-methyl-2-morpholino-5-oxo-5,7,8,9-tetrahydropyrrolo[1,2-c][1,2,4]triazolo[1,5-a]pyrimidine-9-carboxamide], the GI50 with DLD1-WRN-KO cells and in the assay with SW48 cells was > 10 µM throughout. For the same compound, the IC50 in assay [1] is 24 µM.

On to `Cc1cc(C(F)(F)F)ccc1NC(=O)[C@@H]1CCc2c(N3CCN(C(=O)c4ncccc4O)CC3)c(=O)n3nc(C4=CCOCC4)nc3n21` [Example 20B, (S)-2-(3,6-dihydro-2H-pyran-4-yl)-6-(4-(3-hydroxypicolinoyl)piperazin-1-yl)-N-(2-methyl-4-(trifluoromethyl)phenyl)-5-oxo-5,7,8,9-tetrahydropyrrolo[1,2-c][1,2,4]triazolo[1,5-a]pyrimidine-9-carboxamide], for which the 50% growth inhibitory concentration (GI50) with DLD1-WRN-KO cells and in the assay on SW48 cells was > 10 µM in each case. The IC50 in assay [1] is > 10 µM.

Turning to `C[C@H]1C[C@H](C(=O)Nc2ccc(C(F)(F)F)cc2Cl)n2c1c(N1CCN(C(=O)c3nccc(Cl)c3O)CC1)c(=O)n1nc(N3CCOCC3)nc21` [Example 1C, (7S,9R)-6-(4-(4-chloro-3-hydroxypicolinoyl)piperazin-1-yl)-N-(2-chloro-4-(trifluoromethyl)phenyl)-7-methyl-2-morpholino-5-oxo-5,7,8,9-tetrahydropyrrolo[1,2-c][1,2,4]triazolo[1,5-a]pyrimidine-9-carboxamide], the concentration for 50% growth inhibition (GI50) is > 10 µM in the assay with DLD1-WRN-KO cells and 0.5 µM in the assay with SW48 cells. In assay [1], this compound registered an IC50 of 0.04 µM.

Regarding `C[C@@H]1C[C@H](C(=O)Nc2ccc(C(F)(F)F)cc2Cl)n2c1c(N1CCN(C(=O)c3nn(C)c(=O)[nH]3)CC1)c(=O)n1nc(C3=CCOCC3)nc21` [Example 7, (7R,9R)—N-(2-chloro-4-(trifluoromethyl)phenyl)-2-(3,6-dihydro-2H-pyran-4-yl)-7-methyl-6-(4-(1-methyl-5-oxo-4,5-dihydro-1H-1,2,4-triazole-3-carbonyl)piperazin-1-yl)-5-oxo-5,7,8,9-tetrahydropyrrolo[1,2-c][1,2,4]triazolo[1,5-a]pyrimidine-9-carboxamide], the GI50 is > 10 µM in the assay on DLD1-WRN-KO cells and 0.3 µM in the assay on SW48 cells. Also, in assay [1], it took 0.05 µM to reach half-maximal inhibition (IC50).

As for `Cc1cc(F)c(O)c(C(=O)N2CCN(c3c4n(c5nc(C6=CCOCC6)nn5c3=O)[C@@H](C(=O)Nc3ccc(C(F)(F)F)cc3Cl)C[C@H]4C)CC2)n1` [Example 8, (7R,9R)—N-(2-chloro-4-(trifluoromethyl)phenyl)-2-(3,6-dihydro-2H-pyran-4-yl)-6-(4-(4-fluoro-3-hydroxy-6-methylpicolinoyl)piperazin-1-yl)-7-methyl-5-oxo-5,7,8,9-tetrahydropyrrolo[1,2-c][1,2,4]triazolo[1,5-a]pyrimidine-9-carboxamide], the GI50 in the assay on DLD1-WRN-KO cells is > 10 µM; in the assay on SW48 cells, 0.02 µM. The same compound displayed an IC50 in assay [1] of 0.02 µM.

As to `C[C@@H]1C[C@H](C(=O)Nc2ccc(C(F)(F)F)cc2Cl)n2c1c(N1CCN(C(=O)c3nccc(F)c3O)CC1)c(=O)n1nc(C3=CCOCC3)nc21` [Example 6A, (7R,9R)—N-(2-chloro-4-(trifluoromethyl)phenyl)-2-(3,6-dihydro-2H-pyran-4-yl)-6-(4-(4-fluoro-3-hydroxypicolinoyl)piperazin-1-yl)-7-methyl-5-oxo-5,7,8,9-tetrahydropyrrolo[1,2-c][1,2,4]triazolo[1,5-a]pyrimidine-9-carboxamide], the GI50 is > 10 µM in the assay with DLD1-WRN-KO cells and 0.02 µM in the assay with SW48 cells. In assay [1], this compound had a half-maximal inhibitory concentration (IC50) of 0.02 µM.

For the compound `Cc1ncnc(C(=O)N2CCN(c3c4n(c5nc(C6=CCOCC6)nn5c3=O)[C@H](C(=O)Nc3ccc(C(F)(F)F)cc3Cl)C[C@@H]4C)CC2)c1O` [Example 14B, (7S,9S)—N-(2-chloro-4-(trifluoromethyl)phenyl)-2-(3,6-dihydro-2H-pyran-4-yl)-6-(4-(5-hydroxy-6-methylpyrimidine-4-carbonyl)piperazin-1-yl)-7-methyl-5-oxo-5,7,8,9-tetrahydropyrrolo[1,2-c][1,2,4]triazolo[1,5-a]pyrimidine-9-carboxamide], the 50% growth inhibitory concentration (GI50) in the assay with DLD1-WRN-KO cells was > 10 µM; with SW48 cells, 0.7 µM. This compound also came in with a half-inhibitory concentration (IC50) in assay [1] of 2 µM.

Regarding `Cc1cc(C(F)(F)F)ccc1NC(=O)[C@@H]1C[C@@H](C)c2c(N3CCN(C(=O)c4ncccc4O)CC3)c(=O)n3nc(C4=CCOCC4)nc3n21` [Example 15D, (7R,9S)-2-(3,6-dihydro-2H-pyran-4-yl)-6-(4-(3-hydroxypicolinoyl)piperazin-1-yl)-7-methyl-N-(2-methyl-4-(trifluoromethyl)phenyl)-5-oxo-5,7,8,9-tetrahydropyrrolo[1,2-c][1,2,4]triazolo[1,5-a]pyrimidine-9-carboxamide], the GI50 in the assay with DLD1-WRN-KO cells and in the assay on SW48 cells was > 10 µM each time. The IC50 in assay [1] turned out to be 61 µM.

Turning to `C[C@H]1C[C@@H](C(=O)Nc2ccc(C(F)(F)F)cc2Cl)n2c1c(N1CCN(C(=O)c3nccc(Cl)c3O)CC1)c(=O)n1nc(N3CCOCC3)nc21` [Example 1B, (7S,9S)-6-(4-(4-chloro-3-hydroxypicolinoyl)piperazin-1-yl)-N-(2-chloro-4-(trifluoromethyl)phenyl)-7-methyl-2-morpholino-5-oxo-5,7,8,9-tetrahydropyrrolo[1,2-c][1,2,4]triazolo[1,5-a]pyrimidine-9-carboxamide], the GI50 in the assay on DLD1-WRN-KO cells was > 10 µM; with SW48 cells it was 9 µM. In assay [1], this compound yielded a half-inhibitory concentration (IC50) of 7 µM.

Consider `CC(=O)N1CCN(c2c3n(c4nc(C5=CCOCC5)nn4c2=O)C(C(=O)Nc2ccc(C(F)(F)F)cc2)CC3)CC1` (racemic) [Example 24, rac-6-(4-acetylpiperazin-1-yl)-2-(3,6-dihydro-2H-pyran-4-yl)-5-oxo-N-(4-(trifluoromethyl)phenyl)-5,7,8,9-tetrahydropyrrolo[1,2-c][1,2,4]triazolo[1,5-a]pyrimidine-9-carboxamide], for which the GI50 in the assay on DLD1-WRN-KO cells was > 10 µM; in the assay with SW48 cells, 4 µM. Moreover, 2 µM corresponded to half-maximal inhibition in assay [1] (IC50).

For the compound `O=C(Nc1ccc(C(F)(F)F)cc1)[C@H]1CCc2c(N3CCN(C(=O)c4ncccc4O)CC3)c(=O)n3nc(C4=CCOCC4)nc3n21` [Example 23A, (R)-2-(3,6-dihydro-2H-pyran-4-yl)-6-(4-(3-hydroxypicolinoyl)piperazin-1-yl)-5-oxo-N-(4-(trifluoromethyl)phenyl)-5,7,8,9-tetrahydropyrrolo[1,2-c][1,2,4]triazolo[1,5-a]pyrimidine-9-carboxamide], the GI50 with DLD1-WRN-KO cells is > 10 µM; in the assay with SW48 cells, 0.2 µM. Further, inhibition in assay [1] was half-maximal at 0.05 µM (IC50).

`Cc1ncnc(C(=O)N2CCN(c3c4n(c5nc(C6=CCOCC6)nn5c3=O)[C@@H](C(=O)Nc3ccc(C(F)(F)F)cc3Cl)C[C@@H]4C)[C@H]3CC[C@@H]32)c1O` [Example 21C, (7S,9R)—N-(2-chloro-4-(trifluoromethyl)phenyl)-2-(3,6-dihydro-2H-pyran-4-yl)-6-((1S,6S)-5-(5-hydroxy-6-methylpyrimidine-4-carbonyl)-2,5-diazabicyclo[4.2.0]octan-2-yl)-7-methyl-5-oxo-5,7,8,9-tetrahydropyrrolo[1,2-c][1,2,4]triazolo[1,5-a]pyrimidine-9-carboxamide]: the values for the GI50 with DLD1-WRN-KO cells and in the assay on SW48 cells were > 10 µM and 0.01 µM, respectively. The half-inhibitory concentration (IC50) in assay [1] was 0.04 µM.
